Assay results: PubChem BioAssay AID248 (DTP/NCI, 2004)
Toxic doses and inconclusive results are not listed.

Tested on: L1210 leukemia ip in BDF1 mice, survival T/C
Test: NCI In Vivo Anticancer Drug Screen. Data for tumor model L1210 Leukemia (intraperitoneal) in B6D2F1 (BDF1) mice
Conditions: endpoint: mean survival time, higher = longer survival
Method in brief: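 Transplantable tumor model; survival measured in treated vs vehicle control mice. Value = treated/control.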

`CS(=O)(=O)CCN(N=O)C(=N)N[N+](=O)[O-]` was tested, and the T/C (dose: 5.1 mg/kg/injection, schedule: Q01DX Z (ip), vehicle: carboxymethylcellulose (CMC)) was 116 % of control, the T/C (dose: 7.7 mg/kg/injection, schedule: Q01DX Z (ip), vehicle: carboxymethylcellulose (CMC)) was 116 % of control and the T/C (dose: 8.8 mg/kg/injection, schedule: Q01DX Z (ip), vehicle: methylcellulose (MC)) was 121 % of control. For the same molecule, the T/C (dose: 11.7 mg/kg/injection, schedule: Q01DX Z (ip), vehicle: carboxymethylcellulose (CMC)) was 116 % of control, the T/C (dose: 12.0 mg/kg/injection, schedule: Q01DX Z (sc), vehicle: carboxymethylcellulose (CMC)) was 101 % of control and the T/C (dose: 17.7 mg/kg/injection, schedule: Q01DX Z (ip), vehicle: carboxymethylcellulose (CMC)) was 123 % of control. For the same molecule, the T/C (dose: 20.0 mg/kg/injection, schedule: Q01DX Z (ip), vehicle: methylcellulose (MC)) was 117 % of control, the T/C (dose: 24.0 mg/kg/injection, schedule: Q01DX Z (sc), vehicle: carboxymethylcellulose (CMC)) was 117 % of control and the T/C (dose: 40.0 mg/kg/injection, schedule: Q01DX Z (ip), vehicle: carboxymethylcellulose (CMC)) was 155 % of control. For the same molecule, the T/C (dose: 45.0 mg/kg/injection, schedule: Q01DX Z (oral), vehicle: carboxymethylcellulose (CMC)) was 106 % of control, the T/C (dose: 48.0 mg/kg/injection, schedule: Q01DX Z (sc), vehicle: carboxymethylcellulose (CMC)) was 101 % of control and the T/C (dose: 60.0 mg/kg/injection, schedule: Q01DX Z (ip), vehicle: carboxymethylcellulose (CMC)) was 150 % of control. For the same molecule, the T/C (dose: 60.0 mg/kg/injection, schedule: Q01DX Z (ip), vehicle: methylcellulose (MC)) was 168 % of control, the T/C (dose: 90.0 mg/kg/injection, schedule: Q01DX Z (ip), vehicle: methylcellulose (MC)) was 122 % of control and the T/C (dose: 90.0 mg/kg/injection, schedule: Q01DX Z (oral), vehicle: carboxymethylcellulose (CMC)) was 105 % of control. For the same molecule, the T/C (dose: 96.0 mg/kg/injection, schedule: Q01DX Z (sc), vehicle: carboxymethylcellulose (CMC)) was 112 % of control, the T/C (dose: 135.0 mg/kg/injection, schedule: Q01DX Z (ip), vehicle: methylcellulose (MC)) was 119 % of control and the T/C (dose: 180.0 mg/kg/injection, schedule: Q01DX Z (oral), vehicle: carboxymethylcellulose (CMC)) was 118 % of control. The T/C (dose: 360.0 mg/kg/injection, schedule: Q01DX Z (oral), vehicle: carboxymethylcellulose (CMC)) was 114 % of control.

`O=[N+]([O-])c1cc([N+](=O)[O-])c2nn(-c3ccccc3)[n+]([O-])c2c1` was tested, and the T/C (dose: 100.0 mg/kg/injection, schedule: Q04DX003 (ip), vehicle: Klucel (hydroxypropylcellulose) (HPC)) was 101 % of control, the T/C (dose: 200.0 mg/kg/injection, schedule: Q04DX003 (ip), vehicle: Klucel (hydroxypropylcellulose) (HPC)) was 97 % of control and the T/C (dose: 400.0 mg/kg/injection, schedule: Q04DX003 (ip), vehicle: Klucel (hydroxypropylcellulose) (HPC)) was 98 % of control.

With `O=c1[nH]c2c(N3CCOCC3)cccc2o1` the T/C (dose: 25.0 mg/kg/injection, schedule: Q04DX002 (ip), vehicle: Klucel (hydroxypropylcellulose) (HPC)) was 93 % of control, the T/C (dose: 50.0 mg/kg/injection, schedule: Q04DX002 (ip), vehicle: Klucel (hydroxypropylcellulose) (HPC)) was 97 % of control and the T/C (dose: 100.0 mg/kg/injection, schedule: Q04DX002 (ip), vehicle: Klucel (hydroxypropylcellulose) (HPC)) was 97 % of control.

`NC(=O)c1ccc[n+](CC(=O)NCc2ccccc2)c1` was tested, and the T/C (dose: 100.0 mg/kg/injection, schedule: Q04DX003 (ip), vehicle: saline) was 96 % of control and the T/C (dose: 200.0 mg/kg/injection, schedule: Q04DX003 (ip), vehicle: saline) was 93 % of control.

`CCc1c(C)[nH]c2c1C(=O)CCC2` was tested, and the T/C (dose: 10.0 mg/kg/injection, schedule: Q01DX001 (ip), vehicle: saline) was 98 % of control, the T/C (dose: 20.0 mg/kg/injection, schedule: Q01DX001 (ip), vehicle: saline) was 100 % of control and the T/C (dose: 40.0 mg/kg/injection, schedule: Q01DX001 (ip), vehicle: saline) was 105 % of control.

In the case of `CCCC1(CCC)OOC(CCC)(CCC)OO1`, the T/C (dose: 50.0 mg/kg/injection, schedule: Q01DX009 (ip), vehicle: saline with Tween-80) is reported as 96 % of control, the T/C (dose: 100.0 mg/kg/injection, schedule: Q01DX009 (ip), vehicle: saline with Tween-80) is reported as 96 % of control and the T/C (dose: 200.0 mg/kg/injection, schedule: Q01DX009 (ip), vehicle: saline with Tween-80) is reported as 110 % of control.

With `C=CCSCn1ncc2ccc([N+](=O)[O-])cc21` the T/C (dose: 100.0 mg/kg/injection, schedule: Q01DX001 (ip), vehicle: saline) was 94 % of control, the T/C (dose: 200.0 mg/kg/injection, schedule: Q01DX001 (ip), vehicle: saline) was 92 % of control and the T/C (dose: 400.0 mg/kg/injection, schedule: Q01DX001 (ip), vehicle: saline) was 96 % of control.

With `N=C(N)N=Nc1c(O)[nH]c2ccccc12` the T/C (dose: 15.0 mg/kg/injection, schedule: Q01DX Z (ip), vehicle: saline) was 103 % of control, the T/C (dose: 30.0 mg/kg/injection, schedule: Q01DX Z (ip), vehicle: saline) was 100 % of control and the T/C (dose: 37.5 mg/kg/injection, schedule: Q01DX Z (oral), vehicle: carboxymethylcellulose (CMC)) was 102 % of control. The T/C (dose: 60.0 mg/kg/injection, schedule: Q01DX Z (ip), vehicle: saline) was 94 % of control, the T/C (dose: 75.0 mg/kg/injection, schedule: Q01DX Z (oral), vehicle: carboxymethylcellulose (CMC)) was 98 % of control and the T/C (dose: 120.0 mg/kg/injection, schedule: Q01DX Z (ip), vehicle: saline) was 90 % of control. The T/C (dose: 120.0 mg/kg/injection, schedule: Q01DX Z (oral), vehicle: other) was 95 % of control, the T/C (dose: 150.0 mg/kg/injection, schedule: Q01DX Z (oral), vehicle: carboxymethylcellulose (CMC)) was 105 % of control and the T/C (dose: 240.0 mg/kg/injection, schedule: Q01DX Z (oral), vehicle: other) was 98 % of control.

In the case of `COC(=O)c1cc(C)c(I)c([N+](=O)[O-])c1`, the T/C (dose: 100.0 mg/kg/injection, schedule: Q01DX009 (ip), vehicle: Klucel (hydroxypropylcellulose) (HPC)) is reported as 109 % of control, the T/C (dose: 200.0 mg/kg/injection, schedule: Q01DX009 (ip), vehicle: Klucel (hydroxypropylcellulose) (HPC)) is reported as 102 % of control and the T/C (dose: 400.0 mg/kg/injection, schedule: Q01DX009 (ip), vehicle: Klucel (hydroxypropylcellulose) (HPC)) is reported as 98 % of control.
